≈ marks a conversion by molar mass, not a printed value.
How the values were obtained:
[1] = test system: Sprague Dawley rats; assay: Intracisternal toxicity study in rats (LD50); type: in vivo; conditions: cisterna magna, single dose, seven days, concentration I W/V: Example 1 35.0, Example 2 11.25, Example 3 14.1, Example 5 35.0
Protocol: (§1) Intravenous, intracerebral and intracisternal acute toxicities of the compounds of Examples 1-5 were determined according to the following procedures.
Intracisternal toxicity study in rats
The method of intracisternal administration of contrast media in rats was based on the procedure outlined by Melartin, et al. (Investigative Radiology, Jan. - Feb. 13, 12, 1970). Sprague Dawley rats were anesthetized with ether and positioned on a slanted stand. Following clipping of their hair on the nuchal and cervical area, a small midline incision was made in the skin in the occipital area to facilitate penetration of a 27 gauge needle into the cisterna magna. […] Single measured doses of the contrast medium were then injected.
Following injection, the animals were individually housed and observed for pharmacological and toxicological manifestations. Mortalities were recorded during the first four hours, then daily for seven days. Calculation of the LD50 value was carried out according to the method of Litchfield and Wilcoxon (J. Pharmacol. Exp. Ther. 96, 99-113, 1949)

[2] = test system: Swiss albino mice; assay: Intracerebral toxicity study in mice (48 hours LD50); type: in vivo; conditions: 0.05 ml. (0.1 ml. maximum), concentration I W/V: Example 1 26.3, Example 2 11.25, Example 3 28.2, Example 5 28.2
Protocol: as §1
Intracerebral toxicity study in mice
Swiss albino mice of either sex, weighing 18 to 23 grams were used for this test according to the method of Haley (Brit. J. Pharmcol. 12, 12-15 1957). At each dose level, the contrast medium was injected as follows. The mouse was grasped firmly by the loose skin behind the head. After the skin was pulled taut, a 3/8 inch 27 gauge needle attached to a 0.25 ml. syringe was inserted perpendicularly through the skull into the brain at a point 2 mm. from either side of the mid line on a line drawn through the anterior base on the ears. A dose of 0.05 ml. (0.1 ml. maximum) of various concentrations of the contrast medium was injected.
Mortalities were recorded during the first four hours, then daily for two days. Surviving animals were sacrificed 48 hours after injection and the LD50 value was calculated according to the method of Litchfield and Wilcoxon (J. Pharmacol. Exp. Ther. 96, 99-113, 1949).

[3] = Solubility in water
[4] = test system: Swiss albino mice; assay: Intravenous toxicity study in mice (seven-day LD50); type: in vivo; conditions: lateral tail vein, 1 ml./min., concentration I W/V: Example 1 26.3, Example 2 11.25, Example 3 28.2, Example 5 28.0
Protocol: as §1
Intravenous toxicity study in mice
Swiss albino mice with weights ranging from 18 to 25 grams were used for the performance of the test. Three to four groups of mice with sexes equally represented in each group received single measured doses (mg. of contrast media/kg of body weight) injected into a lateral tail vein at a rate of 1 ml./min.
Mortalities were recorded during the first four hours then daily for seven days. After seven days, surviving animals were sacrificed and necropsies performed.
Calculation of the seven-day LD50 value was carried out according to the method of Litchfield and Wilcoxon (J. Pharmacol. Exp. Ther. 96, 99-113, 1949)

[5] = physchem; conditions: water

| SMILES | Intracisternal LD50 [1] [mg. I/kg.] | Intracerebral LD50 [2] [mg. I/kg.] | solubility [3] [mg/mL] | solubility ([3]; water) [mg/mL] | Intravenous LD50 [4] | solubility [5] [mg/mL] |
| --- | --- | --- | --- | --- | --- | --- |
| CC(=O)Nc1c(I)c(C(=O)NCC(=O)N[C@@H](CO)[C@@H](O)[C@H](O)[C@H](O)CO)c(I)c(N(C)C(C)=O)c1I [Example 1, 2-(3-Acetamido-2,4,6-triiodo-5-N-methylacetamidobenzoylglycylamino)-2-deoxy-D-glucitol] | ~525 | ~1550 | 1000 (≈ 1180 mM) | ~1000 (≈ 1180 mM) | ~10,000 mg. I/kg. | – |
| CNC(=O)c1c(I)c(NC(C)=O)c(I)c(C(=O)NCC(=O)N[C@@H](CO)[C@@H](O)[C@H](O)[C@H](O)CO)c1I [Example 2, 2-Deoxy-2-(3-Acetamido-2,4,6-triiodo-5-N-methylcarbamyl-benzoylglycylamino)-D-glucitol] | < 200 | > 543 | – | ~50 (≈ 59.9 mM) | > 7,500 mg. I/kg. | – |
| CC(=O)Nc1c(I)c(C(=O)NCC(=O)N(C)CC(O)CO)c(I)c(C(=O)NCC(=O)N(C)CC(O)CO)c1I (centres unmarked) [Example 3, (5-Acetamido-2,4,6-triiodoisophthaloyl)-N,N'-bis-2,3-dihydroxypropyl-N,N'-dimethyl-bis glycinamide] | 100 | ~1425 | – | – | > 15,000 mg. I/kg. | ~1000 (≈ 1120 mM) |
| CC(=O)Nc1c(I)c(C(=O)NCC(=O)N(C)C[C@H](O)[C@@H](O)[C@H](O)[C@H](O)CO)c(I)c(N(C)C(C)=O)c1I [Example 5, N-(3-Acetamido-2,4,6-triiodo-5-N-methylacetamidobenzoylglycyl)-1-(methylamino)-1-deoxy-D-glucitol] | 400 | ~1100 | – | ~1000 (≈ 1160 mM) | ~8,000 mg. I/kg. | – |
